Measurements from patent EP4516298A1, “STILBENE COMPOUNDS FOR USE IN THE TREATMENT AND PREVENTION OF INFECTIONS WITH CYTOMEGALOVIRUS (CMV)” (Szekeres, Thomas, priority 2023, dated 2025).
pIC50: −log10 of the molar value.

Legend:
[1] = tested on: HCMV strain AD169; test: Functional plaque reduction assay in HFF infected with human CMV; type: cell-based; conditions: for inhibition of CMV replication: plaque reduction assays in HFF treated with decreasing concentrations (Fig. 1-4)
Protocol: For the plaque reduction assay, HFF were seeded to 100 % confluency and then pre-treated with compound M8 at 8 different concentrations. HFF were subsequently infected with CMV strain AD169, washed and again incubated with two-fold dilutions of the compound. All experiments were done in triplicates (arrow bars show SEM). […] For the plaque reduction assay, HFF were seeded to 100 % confluency. The virus preparation of CMV strain AD169 was pretreated before infection of cells with compound M8 at 8 different concentrations. HFF were subsequently infected with CMV strain AD169, washed and again incubated with two-fold dilutions of the compound. All experiments were done in triplicates (arrow bars show SEM). […] For the plaque reduction assay HFF were seeded to 100 % confluency and subsequently infected with CMV strain AD169. Cells were washed thereafter and incubated with two-fold dilutions of the compound GCV. All experiments were done in triplicates (arrow bars show SEM). […] For the plaque reduction assay HFF were seeded to 100 % confluency and then pre-treated with compound RES at 8 different concentrations. HFF were subsequently infected with CMV strain AD169, washed and again incubated with two-fold dilutions of the compound. All experiments were done in triplicates (arrow bars show SEM).
HCMV strain AD169 was prepared as described previously (Rieder et al., J. Gen. Virol. 98 (2017), 471-485). For virus production, HFF were grown to confluence and subsequently infected with HCMV AD169 at a multiplicity of infection (MOI) of 0.01. The viral inoculum was replaced by culture medium after 90 min. Upon visibility of a total cytopathic effect (CPE) (usually 8-10 days post-infection), the viral supernatant was harvested and stored at - 80°C. After thawing, cell debris was removed by centrifugation at 3,000 g for 20 min. Infectivity of the viral inoculum was then measured using a plaque assay as described elsewhere (Britt, Curr. Protoc. Microbiol. (2010), 14E.3). […] Ganciclovir (Merck Millipore) was added at the indicated concentrations after removal of the inoculum. The cells were then overlaid with growth medium containing 0.5% low-melting point agarose. After solidification of the agarose layer, the plates were incubated for 10 days at 37°C in a CO2 incubator, then fixed with 2% formaldehyde and analysed for number of plaques after staining with 1:5 diluted Mayer's Hemalaun. Plaque numbers were normalized to the mean of DMSO-treated control samples. IC50 values were calculated with Graphpad Prism (dose-response inhibition).

[2] = tested on: HFF; test: Toxicity of the compounds to HFF (inhibition of cellular metabolism); type: cell-based, human
[3] = treatment of HFF after CMV infection, CMV strain AD169
[4] = Human betaherpesvirus 5, AD169, cells (HFF) pretreated with compound for 90 min, CMV strain AD169, plaques counted after 10 days
[5] = cells (HFF) pretreated with compound, CMV strain AD169
[6] = virus pretreated with compound, CMV strain AD169

Compound	inhibition of CMV replication [1]	concentration of complete inhibition [1, 3] [µM]	concentration of initial inhibitory effect [1, 3] [µM]	concentration found to be toxic to the HFF [2] [µM]	pIC50 [1, 4]	pIC50 ([1]; Human betaherpesvirus 5, AD169, virus pretreated with compound for 90 min before infection of HFF, CMV strain AD169)	concentration at which some inhibition of CMV was noted [1, 5] [µM]	concentration of complete inhibition of CMV [1, 5] [µM]	concentration at which inhibition was noticed [1, 6] [µM]	concentration of maximum inhibition [1, 6] [µM]
Nc1nc(O)c2ncn(COC(CO)CO)c2n1 [GCV, Ganciclovir, reference compound]	significant inhibition	≥ 5	0.156	–	–	–	–	–	–	–
Oc1cc(/C=C/c2cc(O)c(O)c(O)c2)cc(O)c1O [M8, 3,3',4,4',5,5'-hexahydroxy-trans-stilbene]	significant inhibition	–	–	> 100	~4.43	~5.52	12.5	100	6.25	25
Oc1ccc(C=Cc2cc(O)cc(O)c2)cc1 [RES, resveratrol, reference compound]	significant inhibition	–	–	> 100	~4.00	–	6.25	–	–	–
